Reference: patent publication US20090068286A1, “METHOD OF TREATING CANCER BY ADMINISTRATION OF 5-SUBSTITUTED NUCLEOSIDES” (RESprotect, GmbH, priority 2007, published 2009)

Assays:
[1] = system: Yoshida AH13r hepatoma cells; experiment: Growth of s.c. Yoshida AH13r hepatoma tumors in SD-rats; assay type: in vivo, rat
Experimental: Ten SD-rats per treatment group were given a single s.c. injection of ascites Yoshida AH13r hepatoma cells. Five to 7 days after tumor application, the growth of the resulting tumors (at the injection site) was suppressed by i.p. treatment of the animals with cisplatin, doxorubicin or cyclophosphamide, or by additional oral treatment with 15 mg/kg BVDU (15 times within 3 weeks).

[2] = system: advanced pancreatic adenocarcinoma; experiment: Pilot study GEM + CIS + BVDU in patients; assay type: in vivo, human
Experimental: Pilot study: 13 Patients (mean age 61, 69% males, 4 stage III, 9 stage IV) with advanced pancreatic adenocarcinoma were treated with i.v. 1.000 mg/m^2 GEM over 30 min on days 1 and 15 of a 28-day schedule. CIS was administered at 50 mg/m^2. BVDU treatment took place on the same day and for four days after chemotherapy in the recovery phase (each four 125 mg tablets per day, resulting in a total dose of 6.000 mg per treatment cycle). As control, data were used of patients of a preceding study which were treated with GEM and CIS, but not with BVDU. With the intention to obtain a control group with a similar proportion of stage IV and stage III diseases as the 13 patients of the pilot study, […] (6 stage III, 15 stage IV) of 96 patients were selected from the Heinemann study by random generator.
Evaluation: Efficacy was measured by overall survival, objective tumor response rate (ORR, according to WHO criteria in the pilot study and RECIST criteria in the dose finding study) and time to progression (TTP) from the first administration onwards. Serum CA19-9 levels were measured at the start and end of each treatment cycle. Safety was evaluated according to NCI-CTC scale.
Evaluation of Progression: Patients were evaluated every five weeks.
Statistical Methods: Survival curves were generated using the Kaplan-Meier method; survival distributions were compared by the log-rank test (Cox-Mantel), and median survival by the Box and Whisker plot.

[3] = system: uridine phosphorylase (UPase); experiment: UPase expression in human pancreas carcinoma cell lines; assay type: cell-based
Text: BVDU downregulates uridine phosphorylase (UPase) expression in BxPC-3 and AsPC-1 human pancreas carcinoma cell lines. […] In squamous cell carcinoma, high staining of UPase in primary tumors was frequently associated with the presence of lymph node metastases and lower overall survival.

AH13r sarcoma cells = experiment: Number of AH13r cells under cytostatic ± BVDU and in the recovery phase; assay type: cell-based, rat
Text: AH13r cells were subjected to increasing doses of the cytostatic mitomycin C (MMC). […] This inhibitory effect was maintained even after discontinuation of the cytostatic in the next cycle, in the so-called recovery phase. The cells without MMC and BVDU continued to grow without inhibition.

DT-diaphorase (DT-D) = experiment: DT-diaphorase activity in cell extracts (dicoumarol-inhibitable NAD(P)H: dichlorophenol indophenol reductase); assay type: cell-based
Experimental: The measurement of the DT-diaphorase (DT-D) was effected as a dicoumarol-inhibitable NAD(P)H: dichlorophenol indophenol reductase, as described in Hodnick et al., Anal. Biochem 252(1), 1997, 165-168 (incorporated by reference herein in its entirety). Extracts were tested of a similar number of cells which had been treated with DOX±BVDU for DT-D activity.

[4] = 13 patients, BVDU co-treatment with GEM + CIS
[5] = BVDU co-treatment with GEM + CIS

O=c1[nH]c(=O)n([C@H]2C[C@H](O)[C@@H](CO)O2)cc1/C=C/Br [BVDU, (E)-5-(2-bromovinyl)-2′-deoxyuridine]
Effect on tumor size ([1]; BVDU 50 mg/kg given only on the same day as cisplatin, no recovery phase): only weak | Effect on tumor size ([1]; BVDU 15 times alone in the recovery phase, one time together with cyclophosphamide): strong effect | Effect on tumor size ([1]; BVDU alone or in combination with DOX, recovery phase 6× one day): strong effect | Influence on the growth of rat tumors ([1]; BVDU given alone, oral): no influence | Effect on tumor size ([1]; BVDU with CIS, recovery phase 4×3 or 2 days): very strong | Median survival [2, 4]: 447 days | Median time to progression (TTP) [2, 4]: 280 days | Remissions / response rate ([2]; 13 patients, WHO criteria, BVDU co-treatment with GEM + CIS): 33% | Patients who live more than two years [2, 5]: 23% | Patients who lived or have lived longer than one year [2, 5]: 77% | Number of patients living longer than one year after first treatment ([2]; BVDU-treatment group): Ten of 13 | Number of patients living more than two years ([2]; BVDU-treatment group): three | UPase expression ([3]; AsPC-1 human pancreas carcinoma cell line): downregulates | UPase expression ([3]; BxPC-3 human pancreas carcinoma cell line): downregulates | Toxic effect on AH13r cells (AH13r sarcoma cells; BVDU given alone): no toxic effect | Cell growth in the recovery phase (AH13r sarcoma cells; after MMC+BVDU, cytostatic discontinued, cells continued to receive BVDU): greatly inhibited in their growth | DT-D activity (DT-diaphorase (DT-D); BVDU alone): increases the DT-D activity constantly, but in part only weakly | DT-D activity relative to control cells or cells treated solely with DOX (DT-diaphorase (DT-D); cells treated with DOX±BVDU): approximately threefold
